Measurements reported in patent US20230053688A1, “METHODS TO ALTER LATENCY IN EBV+ MALIGNANCIES” (Cornell University, priority 2020, published 2023).
Structures can show the parent of a compound that is named as a salt. Where two headings read alike, the source gives them in different places.

Test system: LMP1 expression in Kem I cells
Assay: microbe, parasite or virus in culture
Format: cell-based, EBV
Conditions: for fold induction at 2.5 µM: human gammaherpesvirus 4, 48 h
[1] = Kem I cells, dose 2.5 uM, 48 hours, LMP1 transcript by in-well qRT-PCR, average of the two replicates
[2] = Kem I cells, dose 2.5 uM, 48 hours, LMP1 transcript by in-well qRT-PCR, screen replicate 1
[3] = Kem I cells, dose 2.5 uM, 48 hours, LMP1 transcript by in-well qRT-PCR, screen replicate 2
[4] = Kem I cells, 2.5 uM, 48 hours, average of replicates 1 and 2
[5] = Kem I cells, 2.5 uM, 48 hours, fold change in LMP1 transcript vs vehicle
[6] = read-out: Average LMP1 Fold Increase, Kem I cells, 2.5 uM, 48 hours, average of replicates 1 and 2
[7] = read-out: Replicate 1-LMP1 Fold Increase, Kem I cells, 2.5 uM, 48 hours, fold change in LMP1 transcript vs vehicle
[8] = read-out: Replicate 2-LMP1 Fold Increase, Kem I cells, 2.5 uM, 48 hours, fold change in LMP1 transcript vs vehicle
[9] = Kem I cells, 1 uM, 48 hours, fold change in LMP1 transcript vs vehicle

Row | Compound | Average LMP1 Fold Increase [4] | Replicate 1-LMP1 Fold Increase [5] | Replicate 2-LMP1 Fold Increase [5] | also measured
1 | FC(F)(F)c1ccc(/C=C/c2nc(COc3ccc(CCCCn4ccnn4)cc3)co2)cc1 [Mubritinib (TAK 165)] |  |  |  | Average LMP1 Fold Increase: 0.68; Replicate 1-LMP1 Fold Increase: 0.74; Replicate 2-LMP1 Fold Increase: 0.62
2 | O=C(Nc1ccncc1)c1cc([N+](=O)[O-])ccc1Cl [T0070907] |  |  |  | Average LMP1 Fold Increase [1]: 0.56 fold; Replicate 1-LMP1 Fold Increase [2]: 0.63 fold; Replicate 2-LMP1 Fold Increase [3]: 0.50 fold
3 | VU 0357121 |  |  |  | Average LMP1 Fold Increase [1]: 0.48 fold; Replicate 1-LMP1 Fold Increase [2]: 0.51 fold; Replicate 2-LMP1 Fold Increase [3]: 0.46 fold
4 | O=C1NC(=O)/C(=C/c2cccc(C(F)(F)F)c2)S1 [SMI-4a] | 0.41 | 0.29 | 0.53 | 
5 | COc1ccc2c(c1)C(=O)N(CCc1ccc(S(=O)(=O)NC(=O)NC3CCCCC3)cc1)C(=O)C2(C)C [Gliquidone] |  |  |  | fold induction at 2.5 µM [6]: 0.77; fold induction at 2.5 µM [7]: 0.81; fold induction at 2.5 µM [8]: 0.73
6 | CC(C)c1c(C(=O)Nc2ccccc2)c(-c2ccccc2)c(-c2ccc(F)cc2)n1CC[C@@H](O)C[C@@H](O)CC(=O)[O-].CC(C)c1c(C(=O)Nc2ccccc2)c(-c2ccccc2)c(-c2ccc(F)cc2)n1CC[C@@H](O)C[C@@H](O)CC(=O)[O-].[Ca+2] [Atorvastatin Calcium] | 0.09 | 0.05 | 0.14 | 
7 | O=c1ncn2nc(Sc3ccc(F)cc3F)ccc2c1-c1c(Cl)cccc1Cl [VX-745] |  |  |  | fold induction at 2.5 µM (read-out: Average LMP1 Fold Increase, Kem I cells, dose 2.5 uM, 48 hours, LMP1 transcript by in-well qRT-PCR, average of the two replicates): 0.49; fold induction at 2.5 µM (read-out: Replicate 1-LMP1 Fold Increase, Kem I cells, dose 2.5 uM, 48 hours, LMP1 transcript by in-well qRT-PCR, screen replicate 1): 0.75; fold induction at 2.5 µM (read-out: Replicate 2-LMP1 Fold Increase, Kem I cells, dose 2.5 uM, 48 hours, LMP1 transcript by in-well qRT-PCR, screen replicate 2): 0.24
8 | CCc1cncnc1N1CCN(Cc2nc3ccc(C(F)(F)F)cc3[nH]2)CC1 [PF-4708671] | 0.74 | 1.30 | 0.18 | 
9 | CC(C)Oc1ccc(-c2cnc3c(-c4ccnc5ccccc45)cnn3c2)cc1 [DMH1] | 0.75 | 0.21 | 1.28 | 
10 | COc1ccccc1N1CCN(CC(O)COc2cccc3ccccc23)CC1 (stereo not drawn) [Naftopidil] |  |  |  | fold induction at 2.5 µM [6]: 1.15; fold induction at 2.5 µM [7]: 1.36; fold induction at 2.5 µM [8]: 0.95
11 | CC(C)(C)NC(=O)[C@H]1CC[C@H]2[C@@H]3CC[C@H]4NC(=O)C=C[C@]4(C)[C@H]3CC[C@]12C [Finasteride] |  |  |  | fold induction at 2.5 µM [6]: 0.66; fold induction at 2.5 µM [7]: 0.51; fold induction at 2.5 µM [8]: 0.81
12 | O=C(O)/C=C/c1ccc(Cn2ccnc2)cc1 [Ozagrel] |  |  | 1.55 | fold induction at 2.5 µM [6]: 1.41; fold induction at 2.5 µM [7]: 1.27
13 | S=C=Nc1cccc(NC(=S)NCCCCNC(=S)Nc2cccc(N=C=S)c2)c1 [MRS 2578] | 0.47 | 0.64 | 0.31 | 
14 | COC(=O)C1=C(C#N)NC(C)=C(C(=O)OC(C)C)C1c1cccc([N+](=O)[O-])c1 (stereo not drawn) [Nilvadipine] |  |  |  | fold induction at 2.5 µM [6]: 0.72; fold induction at 2.5 µM [7]: 0.96; fold induction at 2.5 µM [8]: 0.47
15 | O=C(Nc1cc(C(F)(F)F)ccc1N1CCCCC1)c1ccncc1 [SRPIN340] | 0.84 | 1.24 | 0.44 | 
16 | CN1C(=O)C(Cc2c[nH]c3ccccc23)NC1=S (stereo not drawn) [Necrostatin-1] | 1.08 | 0.99 | 1.17 | 
17 | Nc1ccn([C@@H]2O[C@H](CO)[C@@H](O)[C@@H]2O)c(=O)n1 [Cytarbine] |  |  |  | Average LMP1 Fold Increase (Kem I cells, 1 uM, 48 hours, average of replicates 1 and 2): 2.31; Replicate 1-LMP1 Fold Increase [9]: 2.61; Replicate 2-LMP1 Fold Increase [9]: 2.01
18 | CC(=O)OCC(=O)NCCCOc1cccc(CN2CCCCC2)c1 [Roxatidine Acetate HCl] |  |  |  | fold induction at 2.5 µM [6]: 0.2; fold induction at 2.5 µM [7]: 0.15; fold induction at 2.5 µM [8]: 0.24
19 | OC[C@H]1O[C@@H](c2ccc(Cl)c(Cc3ccc(O[C@H]4CCOC4)cc3)c2)[C@H](O)[C@@H](O)[C@@H]1O [Empagliflozin (BI 10773)] | 0.58 | 0.67 | 0.50 | 
20 | C=CCc1cccc(/C=N/NC(=O)CN2CCN(Cc3ccccc3)CC2)c1O [PAC-1] | 0.78 | 0.78 | 0.78 | 
21 | O=C(c1cncc(Br)c1)N1CCC(N2CCCC2)CC1 [UNC669] |  |  |  | Average LMP1 Fold Increase [1]: 0.50 fold; Replicate 1-LMP1 Fold Increase [2]: 0.75 fold; Replicate 2-LMP1 Fold Increase [3]: 0.25 fold
22 | NC(=O)N1c2ccccc2CC(=O)c2ccccc21 [Oxcarbazepine] |  |  |  | fold induction at 2.5 µM [6]: 0.46; fold induction at 2.5 µM [7]: 0.54; fold induction at 2.5 µM [8]: 0.38

Row | Compound | Average LMP1 Fold Increase [4] | Replicate 1-LMP1 Fold Increase [5] | Replicate 2-LMP1 Fold Increase [5] | also measured
23 | CN(C)C(=O)Nc1cccc(-c2ccc(N(C)C)cc2)c1 [Atglistatin] | 0.99 | 0.75 | 1.23 | 
24 | Cc1cc(Nc2ncc(Cl)c(Nc3ccccc3S(=O)(=O)C(C)C)n2)c(OC(C)C)cc1C1CCNCC1 [LDK378] |  |  |  | fold induction at 2.5 µM [6]: 0.67; fold induction at 2.5 µM [7]: 0.85; fold induction at 2.5 µM [8]: 0.49
25 | CCCN[C@H]1CCc2nc(N)sc2C1 [Pramipexole] |  |  |  | fold induction at 2.5 µM [6]: 0.93; fold induction at 2.5 µM [7]: 0.6; fold induction at 2.5 µM [8]: 1.27
26 | C[C@@H](Oc1cc(-n2cnc3ccc(CN4CCN(C)CC4)cc32)sc1C(N)=O)c1ccccc1C(F)(F)F [GSK461364] | 1.62 | 1.73 | 1.50 | 
27 | CCOC(=O)[C@H]1O[C@@H]1C(=O)N[C@@H](CC(C)C)C(=O)NCCC(C)C [Aloxistatin] |  |  |  | fold induction at 2.5 µM [6]: 0.11; fold induction at 2.5 µM [7]: 0.1; fold induction at 2.5 µM [8]: 0.12
28 | COc1cc2ncnc(Nc3ccc(Cl)cc3F)c2cc1OC [ZM 306416] |  |  |  | Average LMP1 Fold Increase [1]: 0.85 fold; Replicate 1-LMP1 Fold Increase [2]: 0.70 fold; Replicate 2-LMP1 Fold Increase [3]: 1.00 fold
29 | CCCC(C)NC(=O)c1ccc(Cl)c(Cl)c1 (stereo not drawn) [NSC 405020] | 0.39 | 0.50 | 0.28 | 
30 | CC(C)C[C@H](NC(=O)CNC(=O)c1cc(Cl)ccc1Cl)B(O)O [MLN2238] |  |  |  | fold induction at 2.5 µM [6]: 112; fold induction at 2.5 µM [7]: 86.8; fold induction at 2.5 µM [8]: 138
31 | Cc1cc(OCc2nnc(SC3CCCC3)n2-c2cccnc2)ccc1-c1ccc(S(C)(=O)=O)cc1 [NMS-873] |  |  |  | fold induction at 2.5 µM [6]: 1; fold induction at 2.5 µM [7]: 1.05; fold induction at 2.5 µM [8]: 0.95
32 | O=C(c1cn(Cc2cncn2Cc2ccc(Br)cc2)cc1-c1cccc2ccccc12)N1CCOCC1 [LB42708] | 0.31 | 0.46 | 0.16 | 
33 | CC(C)CCNC(=O)[C@H](CC(C)C)NC(=O)[C@H]1O[C@@H]1C(=O)O [Loxistatin Acid (E-64C)] | 0.55 | 0.62 | 0.48 | 
34 | O=C(NCc1cccc(O)c1)Nc1nc(-c2ccncc2)cs1 [RKI-1447] | 0.54 | 0.75 | 0.33 | 
35 | c1ccc(CNc2nc(NCc3ccccc3)c3ccccc3n2)cc1 [DBeQ] | 0.99 | 0.72 | 1.25 | 
36 | C/C(=N\NC(=S)N1CCC1)c1ccccn1 [NSC 319726] | 19.87 | 7.26 | 32.48 | 
37 | CC1(COc2ccc3c(c2)ncn3-c2ccc3cccc(N4CCC(N)CC4)c3n2)COC1 [Crenolanib (CP-868596)] | 4.04 | 2.56 | 5.53 | 
38 | Nc1nc(N)c2nc(-c3cccc(O)c3)c(-c3cccc(O)c3)nc2n1 [TG100-115] |  |  |  | Average LMP1 Fold Increase [1]: 0.53 fold; Replicate 1-LMP1 Fold Increase [2]: 0.33 fold; Replicate 2-LMP1 Fold Increase [3]: 0.73 fold
39 | CC(C)c1onc(-c2c(Cl)cccc2Cl)c1COc1ccc(/C=C/c2cccc(C(=O)O)c2)c(Cl)c1 [GW4064] | 0.72 | 0.94 | 0.50 | 
40 | COc1cc2c(Nc3ccc(NC(=O)c4ccccc4)cc3)ncnc2cc1OCCCN1CCOCC1 [ZM 447439] |  |  |  | Average LMP1 Fold Increase [1]: 0.37 fold; Replicate 1-LMP1 Fold Increase [2]: 0.34 fold; Replicate 2-LMP1 Fold Increase [3]: 0.40 fold
41 | Cc1cc2c(cc1CC(=O)c1sccc1S(=O)(=O)Nc1onc(C)c1Cl)OCO2 [Sitaxentan sodium] |  |  |  | fold induction at 2.5 µM [6]: 0.25; fold induction at 2.5 µM [7]: 0.16; fold induction at 2.5 µM [8]: 0.34
42 | CC(C)(Cc1ccc2ccccc2c1)NC[C@@H](O)COc1cccc(Cl)c1C#N [NPS-2143] | 0.74 | 0.87 | 0.62 | 
43 | O=C(/C=C\n1cnc(-c2cc(C(F)(F)F)cc(C(F)(F)F)c2)n1)N1CC(F)(F)C1 [KPT-276] | 1.94 | 0.97 | 2.91 | 
44 | CC1=C(C(=O)OC2CCCCC2)C(c2ccc([N+](=O)[O-])cc2)C2=C(CC(C)(C)CC2=O)N1 (stereo not drawn) [FLI-06] | 0.46 | 0.19 | 0.73 | 
